As usually defined, the CC50 is the concentration that lowers cell viability or growth by half. Lower therefore signals harm at low concentration. By EC50 is commonly meant the concentration at which the effect is half-maximal. Usually viability stands for a read-out of living cells in per cent, often relative to untreated cells.

The text below walks through data of article PMC10488391, “Membrane-Targeting Perylenylethynylphenols Inactivate Medically Important Coronaviruses via the Singlet Oxygen Photogeneration Mechanism” (Molecules, 2023).

Where two headings read alike, the source gives them in different places. Bounds are passed on as bounds.

Data set [1] can be described thus: Cytotoxicity assay (Cell Counting Kit-8). To be noted: African green monkey, Vero cells, confluent monolayer; 48 h at 37 °C in the dark; compounds 0–10 µM. It counts as cell-based. As for the experimental part:
Vero cells were cultured for 24 h in 96-well plates to form a confluent monolayer, and then were treated with the tested compounds at concentrations of 0–10 µM. After 48 h of cultivation in the dark at 37 °C under 5% CO2, the cell culture medium was aspirated. The potential cytotoxicity of the tested derivatives was determined based on cell viability using Cell Counting Kit-8 (Dojindo Molecular Technologies, Munich, Germany) according to the manufacturer’s instructions (Figure 5A).

Data set [2] has as its system SARS-CoV-2. Nature of the data set: Virus titer reduction assay. It counts as cell-based. To be noted: for SI: SARS-CoV-2 EC50 and Vero cells CC50; for EC50: Severe acute respiratory syndrome coronavirus 2.
Data set [3] can be described thus: Singlet oxygen generation quantum yield (SOSG fluorescence). It counts as physicochemical. To be noted: in methanol, illumination 430–450 nm, 5.5 mW/cm^2, reference PS C1T11. The procedure:
The ROS generation rate was estimated using the spectrofluorimetric method, based on the fluorescense changes of Singlet Oxigen Sensor Green (SOSG®, Lumiprobe, Cockeysville, MD, USA) in methanol solution. Oxidation of SOSG by singlet oxygen results in peroxide formation enhancing SOSG fluorescence.
Spectrophotometric measurements were performed in a Qpod 2e thermostated cuvette holder (Quantum Northwest, Liberty Lake, WA, USA) at 25 °C and with magnetic stirring (500 rpm). Absorption spectra were recorded using a MayaPro spectrophotometer (Ocean Optics, Orlando, FL, USA) and a stabilized white light source with a SLS201L tungsten lamp (Thorlabs, Newton, NJ, USA). The fluorescence of SOSG was measured with a Flame CCD spectrometer (Ocean Optics, Orlando, FL, USA) in StripChart mode (530 nm), excitation of the SOSG fluorescence was carried out with a PLS-510 LED laser (InTop, St. Petersburg, Russia) in CW mode at the wavelength of 510 nm.
To study photosensitized ^1O2 generation, we used a white MCWHLP1 LED (Thorlabs, USA) with filters to limit the radiation to the 430–450 nm range (5.5 mW/cm^2). Illumination was uniform over the entire volume of the cuvette, to prevent artifacts associated with the diffusion of non-reacted components from entering into the illuminated volume of the cuvette. Illumination was performed in pulsed mode, with 1 s of illumination followed by 5 s of dark adaptation, during which the fluorescence spectrum of the photosensitizer-SOSG solution was recorded.
Singlet oxygen generation quantum yield for compounds 3a–3f in methanol was calculated according to Equation (1):(1) φΔ=φΔ0∗r/r^0(1−10^−A^0)/(1−10^−A), where r is the rate of SOSG fluorescence increase in solution of the photosensitizer (PS), A is the PS absorbance in the region of illumination, and index 0 represents reference PS (we used perylene compound C1T11 [65] with φΔ0=0.59 in methanol).

Data set [4] is described as follows: Light-induced cytotoxicity (photocytotoxicity). Type of data set: cell-based. Conditions: cat (Felis catus), CRFK cells, confluent monolayer; blue light 465–480 nm, 30 mW/cm^2, 10 min; then 48 h incubation; read-out: Cell viability of irradiated CRFK cells.
Details of data set [5]: method as in PMID 37339718. Conditions: in methanol; cited from earlier work.
A further data set concerns PS cells. Nature of the data set: Confocal microscopy of penetration into cellular membranes. Conditions: 10 µM. It counts as cell-based, porcine. As for the experimental part:
Confocal microscopy was used to study the penetration of compound 3a into cellular membranes. PS cells were treated with 3a (10 µM) in a µ-Slide 8 Well (IbidiGmbH, Gräfelfing, Germany) in the dark for 60 min at 37 °C. The samples were analyzed for fluorescent signal distribution and intensity using a Leica SP8 confocal microscope (Leica, Wetzlar, Germany) as described previously.

The test system of data set [6] is FIPV. The data set is described as follows: Anti-FIPV activity in CRFK cells (plaque assay). It counts as cell-based, feline infectious peritonitis virus. To be noted: Alphacoronavirus 1, normal lighting (preparation in daylight, cultivation in the dark).
In data set [7] the test system is FIPV. Nature of the data set: Photodynamic inactivation of FIPV virions. It counts as cell-based, feline infectious peritonitis virus. The procedure: Considering that perylenylethynylphenols are potent ^1O2 photogenerators, we investigated their coronavirus inactivation activity after the irradiation of compound-pretreated FIPV with blue light (465–480 nm, with an approximate power density of 30 mW/cm^2; note: the 465–480 nm wavelength is close to the excitation maxima of perylenylethynylphenols). In this experiment, (i) compound 3a and the virus were mixed in daylight and irradiated with blue light for 10 min (Figure 7D, top panel), or (ii) the compound and virus were mixed in daylight and incubated in the dark for 10 min (Figure 7D, medium panel). Then, both samples (irradiated and non-irradiated) were incubated for 1 h at 37 °C in the dark, and the viability of FIPV was determined by a plaque assay. […] We speculate that the observed enhancement of antiviral (virus inactivation) activity of 3a is due to increased ^1O2 photogeneration during sample irradiation.
To completely eliminate the influence of daylight on the anti-FIPV activity of perylenylethynylphenols, we performed a parallel experiment in a dark room. In this experiment, all manipulations, including sample preparation and plaque assays, were performed under red light (624 ± 20 nm) (Figure 7D, bottom panel).
Virus in DMEM (titer of 10^6 PFU/mL) was mixed with 3a (0–10 µM) in a microtiter plate in daylight and irradiated for 10 min at RT with LEDs (465–480 nm) at an approximate power density of 30 mW/cm^2 (Figure 7D, top panel). As a negative control, the virus was mixed with 3a (0–10 µM) in daylight and incubated with the compound for 10 min in the dark at RT (Figure 7D, middle panel). Subsequently, both irradiated and non-irradiated virus samples were incubated in the dark at 37 °C for an additional 60 min. Viral titers were determined by plaque assays (also in daylight). […] The virus sample was mixed with 3a (0–10 µM), incubated at 37 °C for 60 min, and the viability of the virus was assessed by plaque assays (Figure 7D, bottom panel). […]

Data set [8] can be described thus: Interaction with liposomes (steady-state fluorescence). It counts as physicochemical. To be noted: 10 µM in PBS; 520 nm; after the complete incubation period (3500 s). As for the experimental part: The affinity of 3a to lipid membranes was further confirmed using a liposomal (protein-free) membrane model system (Figure 6D,E). […] The kinetics of liposome penetration of 3a were measured as the steady-state fluorescence response at 520 nm, which reached maximal intensity of about 4 × 10^5 CPE after the complete incubation period (3500 s) (Figure 6E).
The samples’ steady-state fluorescence characteristics were measured in L-format using a Chronos DFD Fluorescence spectrometer (ISS, Baltimore, MD, USA) equipped with a 300 W Cermax xenon arc lamp (ISS, Baltimore, MD, USA), a concave holographic grating monochromator, and a PMT detector. The required amount of each sample was diluted in DMSO and measured in a 1-cm quartz cuvette, at a constant temperature of 25 °C. The resulting data were evaluated using Vinci software version 2 (ISS, Baltimore, MD, USA) and correlated to the utilized optical configuration.
The kinetics of the incorporation of compounds into liposome membrane models were determined using steady-state fluorescence spectroscopy at a constant excitation and emission wavelength, according to the corresponding sample excitation and emission maxima. We added 50 μL of LNP suspension to 10 µM of the analyte in PBS and monitored the increase in fluorescence intensity over the time range […].

Data set [9] can be described thus: Cytotoxicity to CRFK cells under normal lighting. To be noted: cat (Felis catus), CRFK cells (kidney cortex), confluent monolayer. Type of data set: cell-based. The procedure: Furthermore, we investigated the mechanism of antiviral activity of perylenylethynylphenols using FIPV, another member of the Coronaviridae family, which is an important veterinary pathogen.
To determine the light-induced cytotoxicity of the compounds, CRFK cells were cultured in 96-well plates for 24 h to form a confluent monolayer and then treated with the tested compounds at concentrations ranging from 0 to 10 µM in daylight. Subsequently, cells treated with the compounds were irradiated with LEDs (465–480 nm, 30 mW/cm^2) for 10 min at RT (Figure 7A, top panel). As a negative control, CRFK cells were treated with the compounds in daylight and then incubated in the dark at RT for 10 min (Figure 7A, bottom panel). Subsequently, both irradiated and non-irradiated cell monolayers were incubated for 48 h in the dark at 37 °C. After incubation, the potential photocytotoxicity of the compounds was determined using Cell Counting Kit-8 (Dojindo Molecular Technologies, Munich, Germany) according to the manufacturer’s instructions.

The subject of data set [10] is SARS-CoV-2. The data set is described as follows: Virucidal (virus-inactivating) activity, plaque assay. It counts as cell-based. Conditions: 10 µM; 120 min pre-incubation in the dark; starting titers 10^4, 10^6 and 10^7 PFU/mL.
Setting [11] is: SARS-CoV-2 in Vero cells, normalized log-transformed response, read-out: App. EC50, calculated from log-transformed viral titers (converted).
The mark [12] stands for this setting: Vero cells, MOI 0.1, 48 h p.i., normal lighting, 50% reduction in viral titer, read-out: SARS-CoV-2 EC50.

The molecule `Oc1ccc(C#Cc2cc3cccc4c5cccc6cccc(c(c2)c34)c65)cc1` [Compound 3d, 4-(Perylen-2-ylethynyl)phenol] displayed a CC50 at 48 h in data set [1] of over 10000 nM. The SI in the data set with SARS-CoV-2 [2] is over 16. Further, the EC50 in the data set on SARS-CoV-2 [2] (setting [11]) was 2220 nM; with SARS-CoV-2 [2] (setting [12]), 614 nM. The “ϕΔ(1O2), singlet oxygen generation quantum yield” value in data set [3] is given as 0.297.

On to `Oc1cccc(C#Cc2ccc3c4cccc5cccc(c6cccc2c63)c54)c1` [Compound 3b, 3-(Perylen-3-ylethynyl)phenol], for which the viability at 48 h in data set [4] was over 100%. The molecule also came in with a half-maximal cytotoxic concentration (CC50) at 48 h in [1] of over 10000 nM. Further, the SI in the data set with SARS-CoV-2 [2] is recorded as over 196. Further, the EC50 is 506 nM in the data set with SARS-CoV-2 [2] (setting [11]) and 51.1 nM in the data set with SARS-CoV-2 [2] (setting [12]). For the same molecule, the “ϕΔ(1O2), singlet oxygen generation quantum yield” value in data set [3] turned out to be 0.451.

Consider `O=C(O)c1ccc(-c2ccc3c4cccc5cccc(c6cccc2c63)c54)s1` [Compound C1T11], for which, in data set [5], the “φΔ0, singlet oxygen generation quantum yield of the reference PS” value was 0.59.

`Oc1cccc(C#Cc2cc3cccc4c5cccc6cccc(c(c2)c34)c65)c1` [Compound 3e, 3-(Perylen-2-ylethynyl)phenol]: the viability at 48 h in data set [4] is over 100%. Moreover, the CC50 at 48 h in [1] is over 10000 nM. For the same molecule, in the data set on SARS-CoV-2 [2], the SI was over 29. In addition, the EC50 with SARS-CoV-2 [2] (setting [11]) is 1580 nM; in the data set on SARS-CoV-2 [2] (setting [12]), 347 nM. In addition, the “ϕΔ(1O2), singlet oxygen generation quantum yield” value in data set [3] was found to be 0.460.

Consider `Oc1ccc(C#Cc2ccc3c4cccc5cccc(c6cccc2c63)c54)cc1` [Compound 3a, 4-(Perylen-3-ylethynyl)phenol], for which, in the data set on PS cells, the “Cytotoxicity or morphological abnormalities in PS cells” value is recorded as “no signs of cytotoxicity or morphological abnormalities”. Further, the values for the EC50 in the data set on FIPV [6], in the data set with SARS-CoV-2 [2] (setting [11]) and with SARS-CoV-2 [2] (setting [12]) were 196 nM, 1790 nM and 120 nM, respectively. Moreover, the “anti-FIPV activity under red light” value in the data set with FIPV [7] (dark room, all manipulations under red light (624 ± 20 nm), up to 10 µM) is “completely disappeared”. In addition, the “anti-FIPV (virus inactivation) activity after blue-light irradiation” value in the data set on FIPV [7] (mixed in daylight, blue light 465–480 nm, 30 mW/cm^2, 10 min, versus non-irradiated sample) is “significant increase in anti-FIPV activity”. Also, the “FIPV-inactivation activity in the non-irradiated sample” value in the data set on FIPV [7] (mixed in daylight, incubated in the dark 10 min, then 1 h at 37 °C) is listed as “some FIPV-inactivation activity”. The CC50 at 48 h in data set [1] and in [9] was over 10000 nM in each case. The molecule also came in with an SI in the data set with SARS-CoV-2 [2] of over 83. Also, in [8], the “Maximal steady-state fluorescence intensity on liposome penetration” value is given as “about 4 × 10^5 CPE”. In the data set with SARS-CoV-2 [10], the “Decrease in SARS-CoV-2 viral titer compared with control” value is given as “more than two orders of magnitude”. Also, the “ϕΔ(1O2), singlet oxygen generation quantum yield” value in [3] stood at 0.422.

As for `Oc1ccc(C#Cc2cc3cccc4c5cccc6cccc(c(c2)c34)c65)cc1Br` [Compound 3f, 4-(Perylen-2-ylethynyl)-2-bromophenol], the CC50 at 48 h in data set [1] was over 10000 nM. Also, the SI with SARS-CoV-2 [2] is on record as over 19. Also, the EC50 in the data set on SARS-CoV-2 [2] (setting [11]) was 2680 nM; in the data set with SARS-CoV-2 [2] (setting [12]) it was 529 nM. Further, the “ϕΔ(1O2), singlet oxygen generation quantum yield” value in data set [3] was 0.332.

In the case of `Oc1ccc(C#Cc2ccc3c4cccc5cccc(c6cccc2c63)c54)cc1Br` [Compound 3c, 4-(Perylen-3-ylethynyl)-2-bromophenol], the CC50 at 48 h in [1] is over 10000 nM. The same molecule had an SI in the data set on SARS-CoV-2 [2] of over 44. Besides, the figures for the EC50 with SARS-CoV-2 [2] (setting [11]) and in the data set on SARS-CoV-2 [2] (setting [12]) were 1100 nM and 227 nM, respectively. For the same molecule, in data set [3], the “ϕΔ(1O2), singlet oxygen generation quantum yield” value turned out to be 0.282.
